# Key:
# Settings in all cases: synthetic library passage 3, intravenous, relative to wild-type AAV9
# brain [1] = assay: NGS fold enrichment of synthetic library (passage 3) in C57Bl/6 mice, first cross-species screen; format: in vivo
# Procedure, shortened: (§1)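 Synthetic capsid library (passage 3) was given intravenously […] to NHPs aged 2-4 years and to BALB/c and C57Bl/6 mice (n=3 each, 6-8 weeks). After about 28 days in vivo, tissue RNA was RT-PCR amplified and NGS-sequenced; values are fold enrichment per variant relative to wild-type AAV9.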
# brain [2] = assay: NGS fold enrichment of synthetic library (passage 3) in BALB/c mice, first cross-species screen; format: in vivo
# Procedure, shortened: as §1
# [3] = tested on: brain, spinal cord, and DRG of the NHPs; assay: NGS fold enrichment of synthetic library (passage 3) in NHPs, first cross-species screen; format: in vivo, cynomolgus macaques (Macaca fascicularis)
# Procedure, shortened: as §1
# [4] = RNA from brain of C57Bl/6 mice, NGS
# [5] = RNA from brain of BALB/c mice, NGS
# [6] = RNA from spinal cord of NHPs, NGS
Sequence,"Fold enrichment over AAV9 in the brain of Mice (C57Bl/6) (brain [1]; RNA NGS, brain of C57Bl/6 mice) [fold]","Fold enrichment over AAV9 in the brain of Mice (BALB/c) (brain [2]; RNA NGS, brain of BALB/c mice) [fold]","Fold enrichment over AAV9 in the brain of NHPs ([3]; RNA NGS, brain of NHPs) [fold]","Fold enrichment over AAV9 in the spinal cord of NHPs ([3]; RNA NGS, spinal cord of NHPs) [fold]",Fold enrichment over AAV9 in the brain of Mice (C57Bl/6) (brain [1]; [4]) [fold],Fold enrichment over AAV9 in the brain of Mice (BALB/c) (brain [2]; [5]) [fold],"Fold enrichment over AAV9 in the brain of NHPs ([3]; RNA from brain of NHPs, NGS) [fold]","Fold enrichment over AAV9 in the spinal cord of NHPs [3, 6] [fold]"
GSGYSMSQAQNQQT,0.519,0.329,2.250,4.479,,,,
GSGQNQQRNSDSVT,1.238,0.842,1.829,0.000,,,,
GSGPILGQLQNQQT,0.470,0.123,2.097,2.058,,,,
GTTAHQPSGQNQQT,,,,,0.726,0.275,1.138,0.211
GSGASESHRQNQQT,,,,,0.325,0.313,1.350,0.850
GPGLSGHSGQNQQT,1.154,1.297,1.571,1.603,,,,
GSVSTHSSGQNQQT,1.198,0.918,2.145,3.446,,,,
GSGQNQAMTHGDQT,,,,,0.357,0.259,1.257,1.878
GHMKGVTSGQNQQT,0.807,0.413,1.081,2.814,,,,
GSGHAAISQQNQQT,1.211,0.520,1.742,2.373,,,,
GSLVSQGAGQNQQT,1.436,1.246,2.188,4.414,,,,
GEKAVTSSGQNQQT,,,,,0.558,0.327,1.402,0.998
GSGVHGVSSQNQQT,1.504,0.951,1.781,4.519,,,,
GSGIAAQRTQNQQT,1.062,0.754,1.665,2.691,,,,
GSGAMPSHGQNQQT,1.142,0.912,1.915,0.000,,,,
GSGQNHGVLSNQQT,1.113,0.701,2.254,1.603,,,,
GSGLALERSQNQQT,,,,,0.618,0.096,1.311,0.486
GSGQNQHLSSFVQT,1.090,0.364,1.013,0.110,,,,
GRTDSHTSGQNQQT,1.299,0.704,2.913,1.510,,,,
GSGQNQQLSRDAST,1.877,0.611,1.754,3.716,,,,

Sequence,"Fold enrichment over AAV9 in the brain of Mice (C57Bl/6) (brain [1]; RNA NGS, brain of C57Bl/6 mice) [fold]","Fold enrichment over AAV9 in the brain of Mice (BALB/c) (brain [2]; RNA NGS, brain of BALB/c mice) [fold]","Fold enrichment over AAV9 in the brain of NHPs ([3]; RNA NGS, brain of NHPs) [fold]","Fold enrichment over AAV9 in the spinal cord of NHPs ([3]; RNA NGS, spinal cord of NHPs) [fold]",Fold enrichment over AAV9 in the brain of Mice (C57Bl/6) (brain [1]; [4]) [fold],Fold enrichment over AAV9 in the brain of Mice (BALB/c) (brain [2]; [5]) [fold],"Fold enrichment over AAV9 in the brain of NHPs ([3]; RNA from brain of NHPs, NGS) [fold]","Fold enrichment over AAV9 in the spinal cord of NHPs [3, 6] [fold]"
GSGHIYVGIQNQQT,0.989,0.337,2.178,6.428,,,,
GRHLVTASGQNQQT,0.648,0.404,1.411,2.885,,,,
GSGISSRNMQNQQT,,,,,1.671,0.560,1.291,6.328
GSGQNQQKVSPLLT,,,,,0.755,0.806,1.314,1.602
GSGQNQQTAIYRNI,0.818,1.437,1.854,2.207,,,,
GSRSTGPSGQNQQT,0.440,0.466,1.819,2.479,,,,
GSNAQSAHGQNQQT,,,,,0.976,0.245,1.371,0.888
GSGVSTYNIQNQQT,0.769,0.520,3.609,2.912,,,,
GWERSFVSGQNQQT,0.490,0.538,1.492,0.943,,,,
GSGLDYSQRQNQQT,0.484,0.217,2.056,0.837,,,,
GFSSAVHSGQNQQT,0.218,0.210,1.502,1.234,,,,
GSGQNQQTSTGVHS,1.039,1.075,1.660,8.271,,,,
GSGQNQQTMPQHKI,0.479,0.197,1.097,2.394,,,,
GSGQMSDVHGNQQT,,,,,0.408,0.548,1.346,7.172
GSGLPDRNLQNQQT,1.136,0.611,1.471,7.306,,,,
GSGQNQGLLSSPQT,,,,,0.707,0.417,1.164,0.000
GSGQNIGHSLPQQT,,,,,0.740,0.478,1.264,6.183
GSGNYRDHEQNQQT,,,,,0.287,0.222,1.193,7.389
GSGIVTKLGQNQQT,,,,,0.599,0.242,1.174,10.571
GSSTLVTIGKNQQT,0.917,0.819,1.592,4.316,,,,

# Source: US20260250318A1, “COMPOSITIONS AND METHODS FOR CROSSING THE BLOOD BRAIN BARRIER” (VOYAGER THERAPEUTICS, INC., priority 2022, published 2026)
